Values joined by “and” are separate entries in the source; they are usually repeats but may differ in a detail not shown here. Identical values can stand only once.
Settings: 343.15 K, Liquid, Vibrating tube method

CCCCCCC(=O)OCC(COC(=O)CCCCCC)(COC(=O)CCCCCC)COC(=O)CCCCCC [pentaerythritol tetraheptanoate]
Settings	mass density
28615 kPa	960.4 kg/m3
28635 kPa	960.4 kg/m3
28662 kPa	960.4 kg/m3
28700 kPa	960.4 kg/m3
28729 kPa	960.5 kg/m3
28739 kPa	960.4 kg/m3
28764 kPa	960.6 kg/m3
28779 kPa	960.5 kg/m3
28794 kPa	960.6 kg/m3
28823 kPa	960.7 kg/m3
28826 kPa	960.6 kg/m3
28858 kPa	960.6 kg/m3
28865 kPa	960.6 kg/m3
28887 kPa	960.6 kg/m3
28912 kPa	960.6 kg/m3
28918 kPa	960.5 kg/m3
28948 kPa	960.6 kg/m3
28952 kPa	960.6 kg/m3
28985 kPa	960.7 kg/m3
28992 kPa	960.6 kg/m3
29016 kPa	960.7 kg/m3
29032 kPa	960.7 kg/m3
29046 kPa	960.8 kg/m3
29076 kPa	960.6 kg/m3
29081 kPa	960.7 kg/m3
29112 kPa	960.7 kg/m3
29121 kPa	960.5 kg/m3
29142 kPa	960.8 kg/m3
29163 kPa	960.7 kg/m3
29178 kPa	960.8 kg/m3
29208 kPa	960.9 kg/m3
29212 kPa	960.7 kg/m3
29238 kPa	960.8 kg/m3
29254 kPa	960.8 kg/m3
29274 kPa	960.9 kg/m3
29305 kPa	960.9 kg/m3
29308 kPa	960.7 kg/m3
29336 kPa	960.8 kg/m3
29344 kPa	960.9 kg/m3
29372 kPa	961 kg/m3
29387 kPa	960.8 kg/m3
29434 kPa	961 kg/m3
29435 kPa	960.9 kg/m3
29461 kPa	960.9 kg/m3
29471 kPa	961.1 kg/m3
29503 kPa	961 kg/m3
29534 kPa	961 kg/m3
29540 kPa	961 kg/m3
29564 kPa	961 kg/m3
29571 kPa	960.8 kg/m3
29597 kPa	961.1 kg/m3
29602 kPa	961.2 kg/m3
29628 kPa	960.8 kg/m3
29634 kPa	961.1 kg/m3
29654 kPa	961 kg/m3
29666 kPa	961 kg/m3
29679 kPa	961 kg/m3
29704 kPa	961.1 kg/m3
29705 kPa	961.1 kg/m3
29735 kPa	961.1 kg/m3
29736 kPa	961.1 kg/m3
29764 kPa	961.1 kg/m3
29767 kPa	961.1 kg/m3
29790 kPa	961.3 kg/m3
29805 kPa	961.3 kg/m3
29816 kPa	961.1 kg/m3
29839 kPa	961.1 kg/m3
29846 kPa	961.2 kg/m3
29871 kPa	961.3 kg/m3
29873 kPa	961.2 kg/m3
29900 kPa	961.1 kg/m3
29903 kPa	961.3 kg/m3
29931 kPa	961.1 kg/m3
29935 kPa	961.2 kg/m3
29958 kPa	961.1 kg/m3
29974 kPa	961.2 kg/m3
29984 kPa	961.3 kg/m3
30006 kPa	961.3 kg/m3
30016 kPa	961.3 kg/m3
30043 kPa	961.3 kg/m3
30045 kPa	961.4 kg/m3
30070 kPa	961.4 kg/m3
30077 kPa	961.3 kg/m3
30102 kPa	961.3 kg/m3
30109 kPa	961.4 kg/m3
30129 kPa	961.4 kg/m3
30148 kPa	961.4 kg/m3
30157 kPa	961.4 kg/m3
30180 kPa	961.4 kg/m3
30184 kPa	961.5 kg/m3
30213 kPa	961.5 kg/m3
30216 kPa	961.4 kg/m3
30243 kPa	961.5 kg/m3
30247 kPa	961.4 kg/m3
30275 kPa	961.4 kg/m3
30288 kPa	961.5 kg/m3
30302 kPa	961.4 kg/m3
30321 kPa	961.5 kg/m3
30330 kPa	961.5 kg/m3
30354 kPa	961.6 kg/m3
30363 kPa	961.5 kg/m3
30388 kPa	961.6 kg/m3
30391 kPa	961.6 kg/m3
30419 kPa	961.6 kg/m3
30428 kPa	961.5 kg/m3
30446 kPa	961.5 kg/m3
30461 kPa	961.6 kg/m3
30481 kPa	961.6 kg/m3
30495 kPa	961.6 kg/m3
30510 kPa	961.7 kg/m3
30528 kPa	961.6 kg/m3
30538 kPa	961.6 kg/m3
30568 kPa	961.6 kg/m3
30571 kPa	961.6 kg/m3
30599 kPa	961.6 kg/m3
30602 kPa	961.8 kg/m3
30627 kPa	961.7 kg/m3
30642 kPa	961.7 kg/m3
30660 kPa	961.6 kg/m3
30675 kPa	961.7 kg/m3
30688 kPa	961.8 kg/m3
30710 kPa	961.8 kg/m3
30716 kPa	961.7 kg/m3
30744 kPa	961.7 kg/m3
30778 kPa	961.7 kg/m3
30785 kPa	961.7 kg/m3
30806 kPa	961.8 kg/m3
30819 kPa	961.8 kg/m3
30835 kPa	961.8 kg/m3
30860 kPa	961.8 kg/m3
30870 kPa	961.7 kg/m3
30894 kPa	961.8 kg/m3
30900 kPa	961.7 kg/m3
30928 kPa	961.8 kg/m3 and 962 kg/m3
30956 kPa	961.9 kg/m3
30970 kPa	962 kg/m3
30990 kPa	961.7 kg/m3
31004 kPa	961.9 kg/m3
31019 kPa	961.9 kg/m3
31040 kPa	962.1 kg/m3
31048 kPa	961.8 kg/m3
31081 kPa	962 kg/m3
31082 kPa	961.8 kg/m3
31111 kPa	962 kg/m3
31116 kPa	962 kg/m3
31145 kPa	962.1 kg/m3
31151 kPa	962 kg/m3
31174 kPa	962.1 kg/m3
31193 kPa	962.1 kg/m3
31203 kPa	961.9 kg/m3
31229 kPa	962.1 kg/m3
31238 kPa	962 kg/m3
31264 kPa	962.1 kg/m3
31268 kPa	962 kg/m3
31298 kPa	962.1 kg/m3
31306 kPa	962 kg/m3
31327 kPa	962 kg/m3
31342 kPa	962.2 kg/m3
31362 kPa	962.1 kg/m3
31377 kPa	962 kg/m3
31392 kPa	962.1 kg/m3
31420 kPa	962.3 kg/m3
31427 kPa	962.1 kg/m3
31456 kPa	962 kg/m3
31457 kPa	962.2 kg/m3
31486 kPa	962.2 kg/m3
31492 kPa	962.3 kg/m3
31516 kPa	962.2 kg/m3
31528 kPa	962.2 kg/m3
31552 kPa	962.2 kg/m3
31571 kPa	962.3 kg/m3
31582 kPa	962.3 kg/m3
31608 kPa	962.4 kg/m3
31611 kPa	962.3 kg/m3
31644 kPa	962.3 kg/m3
31647 kPa	962.2 kg/m3
31678 kPa	962.4 kg/m3
31688 kPa	962.3 kg/m3
31715 kPa	962.3 kg/m3
31725 kPa	962.5 kg/m3
31745 kPa	962.3 kg/m3
31761 kPa	962.4 kg/m3
31775 kPa	962.4 kg/m3
31805 kPa	962.4 kg/m3
31807 kPa	962.4 kg/m3
31841 kPa	962.4 kg/m3
31844 kPa	962.4 kg/m3
31871 kPa	962.5 kg/m3
31874 kPa	962.4 kg/m3
31905 kPa	962.5 kg/m3
31914 kPa	962.5 kg/m3
31942 kPa	962.3 kg/m3
31958 kPa	962.4 kg/m3
31972 kPa	962.6 kg/m3
32003 kPa	962.4 kg/m3
32009 kPa	962.5 kg/m3
32040 kPa	962.6 kg/m3
32041 kPa	962.6 kg/m3
32071 kPa	962.6 kg/m3
32078 kPa	962.5 kg/m3
32104 kPa	962.5 kg/m3
32115 kPa	962.6 kg/m3
32136 kPa	962.5 kg/m3
32160 kPa	962.6 kg/m3
32173 kPa	962.5 kg/m3
32199 kPa	962.6 kg/m3
32205 kPa	962.6 kg/m3
32236 kPa	962.7 kg/m3
32237 kPa	962.7 kg/m3
32274 kPa	962.7 kg/m3
32282 kPa	962.7 kg/m3
32305 kPa	962.7 kg/m3
32320 kPa	962.7 kg/m3
32337 kPa	962.6 kg/m3
32358 kPa	962.7 kg/m3
32368 kPa	962.7 kg/m3
32403 kPa	962.8 kg/m3
32406 kPa	962.7 kg/m3
32438 kPa	962.8 kg/m3
32441 kPa	962.8 kg/m3
32471 kPa	962.8 kg/m3
32480 kPa	962.9 kg/m3
32509 kPa	962.8 kg/m3

Source: the NIST ThermoML archive (doi:10.1021/je060271a)
